We go through 5 compounds from patent US12391737B2, “Soluble NPY2 receptor agonists” (Boehringer Ingelheim International GmbH, priority 2020, dated 2025).

As a reminder, the Ki is a measure of affinity in units of concentration, obtained from inhibition or displacement.

The target in data set [1] is T1, Human Neuropeptide Y2 Receptor (Homo sapiens, UniProt P49146).
T1 construct: purchased CHEMICON HTS066M
T1 sequence (P49146 1-381): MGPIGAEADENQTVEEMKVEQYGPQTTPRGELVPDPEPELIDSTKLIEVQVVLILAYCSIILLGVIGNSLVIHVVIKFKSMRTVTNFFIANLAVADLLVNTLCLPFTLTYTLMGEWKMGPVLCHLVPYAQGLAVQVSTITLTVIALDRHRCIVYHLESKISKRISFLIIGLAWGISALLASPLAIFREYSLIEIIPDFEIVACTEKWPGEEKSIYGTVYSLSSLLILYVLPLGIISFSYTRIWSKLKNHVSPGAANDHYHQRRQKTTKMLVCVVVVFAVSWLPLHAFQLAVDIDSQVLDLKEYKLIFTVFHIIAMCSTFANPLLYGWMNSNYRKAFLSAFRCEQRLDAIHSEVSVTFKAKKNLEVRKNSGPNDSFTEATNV
The experiment in a line: Radioligand binding competition assay (RLB). The following applies: Table 3, 125I-PYY(1-36) competition; read-out: Ki. The gist of the method: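 Filtration competition binding on membranes from cells expressing the receptor, 0.5 μg protein/well, in 50 mM HEPES, 5 mM MgCl2, 1 mM CaCl2, pH 7.4, with 0.2% ovalbumin. Incubation ran 2 h at room temperature, followed by GF/C filtration and scintillation counting. IC50 came from nonlinear sigmoidal fits.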

The nature of data set [2]: Solubility determination. The gist of the method:
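First, TFA-salt peptide was added to 0.1 M sodium diphosphate (pH 6.4 or 7.0) to 10 mg/ml and shaken 2 h at room temperature. Next, insoluble material was filtered off. Finally, filtrate and control, each 1 mg/ml in 50% acetonitrile, were compared by reversed-phase chromatography.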

In the case of `CC(C)CC(=O)N[C@@H](C)C(=O)N1CCC[C@H]1C(=O)N[C@@H](CCC(=O)O)C(=O)N[C@@H](CCCCNC(=O)CCCCCNC(=O)CC[C@H](NC(=O)CCCCCCCCCCCCCCCCC(=O)O)C(=O)O)C(=O)N1CCC[C@H]1C(=O)N[C@@H](CCC(=O)O)C(=O)N[C@@H](CCC(=O)O)C(=O)N[C@@H](CC(=O)O)C(=O)N[C@@H](C)C(=O)N[C@H](C(=O)N1CCC[C@H]1C(=O)N[C@@H](CCC(=O)O)C(=O)N[C@@H](CCC(=O)O)C(=O)N[C@@H](CC(C)C)C(=O)N[C@@H](CCC(N)=O)C(=O)N[C@@H](CCCNC(=N)N)C(=O)N[C@@H](Cc1ccc(O)cc1)C(=O)N[C@@H](Cc1ccc(O)cc1)C(=O)N[C@H](C(=O)N[C@@H](CO)C(=O)N[C@@H](CC(C)C)C(=O)N[C@@H](CCCNC(=N)N)C(=O)N[C@@H](Cc1c[nH]cn1)C(=O)N[C@@H](Cc1ccc(O)cc1)C(=O)N[C@@H](Cc1ccc(O)cc1)C(=O)N[C@@H](CC(N)=O)C(=O)N[C@@H](Cc1c[nH]c2ccccc12)C(=O)N[C@@H](CC(C)C)C(=O)N[C@H](C(=O)N[C@@H](CCCCN)C(=O)N[C@@H](CCC(N)=O)C(=O)N[C@@H](CCCNC(=N)N)C(=O)N[C@@H](Cc1ccc(O)cc1)C(N)=O)[C@@H](C)O)C(C)C)[C@@H](C)O` [Compound 180, N{alpha-4}-(3-methylbutanoyl)-N{epsilon-7}-(6-[(4S)-4-carboxy-4-(17-carboxyheptadecanamido)butanamido]hexanoyl)-[4A,7K,9E,13T,18Q,22V,28Y,30W,31L,33K]-hPYY(4-36)], the inhibition constant (Ki) in data set [1] came to 15.1 nM. Also, the “Sol6” value in data set [2] (solubility in the pH 6 condition, measured pH printed in the next column (6.0-6.3)) is 9.9 mg/mL. For the same compound, the “Sol7” value in data set [2] (solubility in the pH 7 condition, measured pH printed in the next column (6.6-6.9)) turned out to be 10.0 mg/mL.
Consider `CC[C@H](C)[C@H](NC(=O)[C@H](CCC(=O)O)NC(=O)[C@H](CCC(=O)O)NC(=O)[C@@H]1CCCN1C(=O)[C@H](CCC(=O)O)NC(=O)[C@H](C)NC(=O)[C@H](CC(=O)O)NC(=O)[C@H](C)NC(=O)[C@H](CCC(=O)O)NC(=O)[C@@H]1CCCN1C(=O)[C@H](CCCCNC(=O)CCCCCNC(=O)CC[C@H](NC(=O)CCCCCCCCCCCCCCCCC(=O)O)C(=O)O)NC(=O)[C@H](C)NC(=O)[C@@H]1CCCN1C(=O)[C@H](C)NC(=O)CC(C)C)C(=O)N[C@@H](CCC(N)=O)C(=O)N[C@@H](CCCNC(=N)N)C(=O)N[C@@H](Cc1ccc(O)cc1)C(=O)N[C@@H](Cc1ccc(O)cc1)C(=O)N[C@H](C(=O)N[C@@H](C)C(=O)N[C@@H](CC(C)C)C(=O)N[C@@H](CCCNC(=N)N)C(=O)N[C@@H](Cc1c[nH]cn1)C(=O)N[C@@H](Cc1ccc(O)cc1)C(=O)N[C@@H](Cc1ccc(O)cc1)C(=O)N[C@@H](CC(N)=O)C(=O)N[C@@H](Cc1c[nH]c2ccccc12)C(=O)N[C@@H](CC(C)C)C(=O)N[C@H](C(=O)N[C@@H](CCCNC(=N)N)C(=O)N[C@@H](CCC(N)=O)C(=O)N[C@@H](CCCNC(=N)N)C(=O)N[C@@H](Cc1ccc(O)cc1)C(N)=O)[C@@H](C)O)C(C)C` [Compound 181, N{alpha-4}-(3-methylbutanoyl)-N{epsilon-7}-(6-[(4S)-4-carboxy-4-(17-carboxyheptadecanamido)butanamido]hexanoyl)-[4A,6A,7K,9E,10A,13E,17I,18Q,22V,23A,28Y,30W,31L]-hPYY(4-36)], for which the inhibition constant (Ki) in data set [1] was 1.33 nM. The “Sol6” value in data set [2] (pH 6) worked out at 9.5 mg/mL. Also, in data set [2] (pH 7), the “Sol7” value was determined as 9.3 mg/mL.
With `CC(C)CC(=O)N[C@@H](C)C(=O)N1CCC[C@H]1C(=O)N[C@@H](C)C(=O)N[C@@H](CCCCNC(=O)CCCCCNC(=O)CC[C@H](NC(=O)CCCCCCCCCCCCCCCCC(=O)O)C(=O)O)C(=O)N1CCC[C@H]1C(=O)N[C@@H](CCC(=O)O)C(=O)N[C@@H](CCC(=O)O)C(=O)N[C@@H](CC(=O)O)C(=O)N[C@@H](C)C(=O)N[C@@H](CO)C(=O)N[C@@H](CCC(=O)O)C(=O)N[C@@H](CCC(=O)O)C(=O)N[C@@H](CCC(=O)O)C(=O)N[C@@H](CC(C)C)C(=O)N[C@@H](CCC(N)=O)C(=O)N[C@@H](CCCNC(=N)N)C(=O)N[C@@H](Cc1ccc(O)cc1)C(=O)N[C@@H](Cc1ccc(O)cc1)C(=O)N[C@H](C(=O)N[C@@H](CO)C(=O)N[C@@H](CC(C)C)C(=O)N[C@@H](CCCNC(=N)N)C(=O)N[C@@H](Cc1c[nH]cn1)C(=O)N[C@@H](Cc1ccc(O)cc1)C(=O)N[C@@H](Cc1ccc(O)cc1)C(=O)N[C@@H](CC(N)=O)C(=O)N[C@@H](Cc1c[nH]c2ccccc12)C(=O)N[C@@H](CC(C)C)C(=O)N[C@H](C(=O)N[C@@H](CCCNC(=N)N)C(=O)N[C@@H](CCC(N)=O)C(=O)N[C@@H](CCCNC(=N)N)C(=O)N[C@@H](Cc1ccc(O)cc1)C(N)=O)[C@@H](C)O)C(C)C` [Compound 185, N{alpha-4}-(3-methylbutanoyl)-N{epsilon-7}-(6-[(4S)-4-carboxy-4-(17-carboxyheptadecanamido)butanamido]hexanoyl)-[4A,6A,7K,9E,14E,18Q,22V,28Y,30W,31L]-hPYY(4-36)], the Ki in data set [1] came out at 2.06 nM. In addition, the “Sol6” value in data set [2] (pH 6) is 8.7 mg/mL. The “Sol7” value in data set [2] (pH 7) is 8.9 mg/mL.
In the same order, the values of `CC(C)CC(=O)N[C@@H](C)C(=O)N1CCC[C@H]1C(=O)N[C@@H](CCC(=O)O)C(=O)N[C@@H](CCCCNC(=O)CCCCCNC(=O)CC[C@H](NC(=O)CCCCCCCCCCCCCCCCC(=O)O)C(=O)O)C(=O)N1CCC[C@H]1C(=O)N[C@@H](CCC(=O)O)C(=O)N[C@@H](CCC(=O)O)C(=O)N[C@@H](CC(=O)O)C(=O)N[C@@H](C)C(=O)N[C@H](C(=O)N1CCC[C@H]1C(=O)N[C@@H](CCC(=O)O)C(=O)N[C@@H](CCC(=O)O)C(=O)N1CCC[C@H]1C(=O)N[C@@H](CCC(N)=O)C(=O)N[C@@H](CCCNC(=N)N)C(=O)N[C@@H](Cc1ccc(O)cc1)C(=O)N[C@@H](Cc1ccc(O)cc1)C(=O)N[C@H](C(=O)N[C@@H](CO)C(=O)N[C@@H](CC(C)C)C(=O)N[C@@H](CCCNC(=N)N)C(=O)N[C@@H](Cc1c[nH]cn1)C(=O)N[C@@H](Cc1ccc(O)cc1)C(=O)N[C@@H](Cc1ccc(O)cc1)C(=O)N[C@@H](CC(N)=O)C(=O)N[C@@H](Cc1c[nH]c2ccccc12)C(=O)N[C@@H](CC(C)C)C(=O)N[C@H](C(=O)N[C@@H](CCCNC(=N)N)C(=O)N[C@@H](CCC(N)=O)C(=O)N[C@@H](CCCNC(=N)N)C(=O)N[C@@H](Cc1ccc(O)cc1)C(N)=O)[C@@H](C)O)C(C)C)[C@@H](C)O` [Compound 187, N{alpha-4}-(3-methylbutanoyl)-N{epsilon-7}-(6-[(4S)-4-carboxy-4-(17-carboxyheptadecanamido)butanamido]hexanoyl)-[4A,7K,9E,13T,17P,18Q,22V,28Y,30W,31L]-hPYY(4-36)] are 15.3 nM, 7.8 mg/mL and greater than 10.0 mg/mL.
Taken in the same sequence, the figures for `CC(C)CC(=O)N[C@@H](C)C(=O)N1CCC[C@H]1C(=O)N[C@@H](CCC(=O)O)C(=O)N[C@@H](CCCCNC(=O)CCCCCNC(=O)CC[C@H](NC(=O)CCCCCCCCCCCCCCCCC(=O)O)C(=O)O)C(=O)N1CCC[C@H]1C(=O)N[C@@H](CCC(=O)O)C(=O)N[C@@H](CCC(=O)O)C(=O)N[C@@H](CC(=O)O)C(=O)N[C@@H](C)C(=O)N[C@H](C(=O)N1CCC[C@H]1C(=O)N[C@@H](CCC(=O)O)C(=O)N[C@@H](CCC(=O)O)C(=O)N[C@@H](CC(C)C)C(=O)N[C@@H](CCC(N)=O)C(=O)N[C@@H](CCCNC(=N)N)C(=O)N[C@@H](Cc1ccc(O)cc1)C(=O)N[C@@H](Cc1ccc(O)cc1)C(=O)N[C@H](C(=O)N[C@@H](CO)C(=O)N[C@@H](CC(C)C)C(=O)N[C@@H](CCCNC(=N)N)C(=O)N[C@@H](Cc1c[nH]cn1)C(=O)N[C@@H](Cc1ccc(O)cc1)C(=O)N[C@@H](Cc1ccc(O)cc1)C(=O)N[C@@H](CC(N)=O)C(=O)N[C@@H](Cc1c[nH]c2ccccc12)C(=O)N[C@@H](CC(C)C)C(=O)N[C@@H](CCC(N)=O)C(=O)N[C@@H](CCCNC(=N)N)C(=O)N[C@@H](CCC(N)=O)C(=O)N[C@@H](CCCNC(=N)N)C(=O)N[C@@H](Cc1ccc(O)cc1)C(N)=O)C(C)C)[C@@H](C)O` [Compound 188, N{alpha-4}-(3-methylbutanoyl)-N{epsilon-7}-(6-[(4S)-4-carboxy-4-(17-carboxyheptadecanamido)butanamido]hexanoyl)-[4A,7K,9E,13T,18Q,22V,28Y,30W,31L,32Q]-hPYY(4-36)] were 5.46 nM, 9.5 mg/mL and 9.8 mg/mL.
